Test results as given in ChEMBL document CHEMBL5338706, “Discovery of a potent and selective proteolysis targeting chimera (PROTAC) degrader of NSD3 histone methyltransferase” (Eur J Med Chem, 2022).
The source made the active and inactive calls. The rule behind the calls is not given here.

What was measured:
[1] = biological target: T1, Histone-lysine N-methyltransferase NSD3 (Homo sapiens) (UniProt Q9BZ95); test: Induction of NSD3 degradation in human NCI-H1703 cells at 5 uM measured within 12 hrs by Western blot analysis; type: cell-based
T1 sequence (whole entry): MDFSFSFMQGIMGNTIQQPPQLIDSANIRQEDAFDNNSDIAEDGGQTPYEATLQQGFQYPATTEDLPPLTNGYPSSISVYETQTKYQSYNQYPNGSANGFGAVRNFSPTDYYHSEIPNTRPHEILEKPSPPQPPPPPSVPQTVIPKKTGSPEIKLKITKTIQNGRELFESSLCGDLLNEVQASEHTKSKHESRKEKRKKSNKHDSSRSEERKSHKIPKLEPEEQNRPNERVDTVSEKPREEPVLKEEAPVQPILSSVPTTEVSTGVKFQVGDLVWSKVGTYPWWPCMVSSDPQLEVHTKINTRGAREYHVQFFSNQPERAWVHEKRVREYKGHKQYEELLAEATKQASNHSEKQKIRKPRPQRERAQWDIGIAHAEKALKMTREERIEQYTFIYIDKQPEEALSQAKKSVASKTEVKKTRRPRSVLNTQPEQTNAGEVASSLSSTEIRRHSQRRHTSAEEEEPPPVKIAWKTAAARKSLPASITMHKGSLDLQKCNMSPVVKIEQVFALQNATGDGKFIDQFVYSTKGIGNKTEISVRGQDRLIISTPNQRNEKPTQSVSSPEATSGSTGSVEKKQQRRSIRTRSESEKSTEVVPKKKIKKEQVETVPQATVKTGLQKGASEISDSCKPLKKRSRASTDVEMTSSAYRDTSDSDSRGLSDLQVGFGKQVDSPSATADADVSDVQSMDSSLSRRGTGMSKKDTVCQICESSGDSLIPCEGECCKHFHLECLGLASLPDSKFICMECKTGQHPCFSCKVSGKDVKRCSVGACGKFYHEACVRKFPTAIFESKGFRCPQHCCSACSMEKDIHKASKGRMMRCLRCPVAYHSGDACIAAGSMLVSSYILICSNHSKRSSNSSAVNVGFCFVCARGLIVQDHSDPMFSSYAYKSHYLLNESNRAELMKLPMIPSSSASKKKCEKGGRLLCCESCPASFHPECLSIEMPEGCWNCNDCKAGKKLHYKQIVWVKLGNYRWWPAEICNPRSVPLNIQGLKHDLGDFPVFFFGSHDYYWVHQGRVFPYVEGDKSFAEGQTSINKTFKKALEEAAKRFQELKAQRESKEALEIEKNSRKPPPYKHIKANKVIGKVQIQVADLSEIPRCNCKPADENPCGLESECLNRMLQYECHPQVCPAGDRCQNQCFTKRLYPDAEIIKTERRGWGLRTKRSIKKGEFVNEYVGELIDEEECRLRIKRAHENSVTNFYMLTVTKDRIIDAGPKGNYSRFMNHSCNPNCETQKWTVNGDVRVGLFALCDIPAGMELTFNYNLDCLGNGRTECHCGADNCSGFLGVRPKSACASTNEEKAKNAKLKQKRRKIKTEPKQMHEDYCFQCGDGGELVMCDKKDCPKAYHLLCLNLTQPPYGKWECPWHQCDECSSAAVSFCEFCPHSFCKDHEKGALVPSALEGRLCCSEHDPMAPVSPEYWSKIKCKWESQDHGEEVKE

[2] = biological target: T1, Histone-lysine N-methyltransferase NSD3 (Homo sapiens); test: Induction of NSD3 degradation in human NCI-H1703 cells at […] incubated for 48 hrs in presence of MG132 by Western blot analysis; type: cell-based; conditions: dose 7.5 µM
[3] = Downregulation of Cyclin D1 level in human NCI-H1703 cells at 5 uM by measuring fold change by Western blot analysis relative to control; type: functional
NCI-H520 [4] = test: Downregulation of CDC25A level in human NCI-H520 cells at 3 to […] by Western blot analysis; type: functional, cell-based; conditions: dose 3-7.5 µM
NCI-H1703 [5] = test: Induction of apoptosis in human NCI-H1703 cells assessed as decrease in Bcl-XL protein expression at […] by measuring fold change by Western blot analysis relative to control; type: functional; conditions: dose 7.5 µM
NCI-H520 [6] = test: Downregulation of CyclinD1 level in human NCI-H520 cells at 3 to […] by Western blot analysis; type: functional, cell-based; conditions: dose 3-7.5 µM
[7] = Downregulation of Cyclin D1 level in human NCI-H1703 cells at 3 uM by measuring fold change by Western blot analysis relative to control; type: functional
NCI-H1703 [8] = test: Induction of apoptosis in human NCI-H1703 cells assessed as late apoptotic cells at 3 uM measured after 72 hrs by PI/Annexin-V staining based flow cytometry analysis (reference value: 3.00% ); type: functional
NCI-H1703 [9] = test: Induction of apoptosis in human NCI-H1703 cells assessed as decrease in MCL-1 protein expression at 5 to 10 uM by Western blot analysis; type: functional, cell-based; conditions: dose 5-10 µM
NCI-H1703 [10] = test: Induction of apoptosis in human NCI-H1703 cells assessed as decrease in Bcl-XL protein expression at 5 uM by measuring fold change by Western blot analysis relative to control; type: functional
NCI-H1703 [11] = test: Induction of apoptosis in human NCI-H1703 cells assessed as early apoptotic cells at 5 uM measured after 72 hrs by PI/Annexin-V staining based flow cytometry analysis (reference value: 1.47% ); type: functional
NCI-H1703 [12] = test: Induction of apoptosis in human NCI-H1703 cells assessed as viable cells at […] measured after 72 hrs by PI/Annexin-V staining based flow cytometry analysis (reference value: 92.7% ); type: functional; conditions: dose 7.5 µM, read-out: Activity
A549 = test: Antitumor activity against human A549 cells xenografted mouse model assessed as reduction in NSD3 expression level at 100 mg/kg, ip measured within 36 hrs by Western blot analysis; type: functional, organism-based
NCI-H1703 [13] = test: Induction of apoptosis in human NCI-H1703 cells assessed as necrotic cells at 5 uM measured after 72 hrs by PI/Annexin-V staining based flow cytometry analysis (reference value: 2.80% ); type: functional
NCI-H520 [14] = test: Induction of apoptosis in human NCI-H520 cells assessed as decrease in Bcl-XL protein expression at 10 uM by measuring fold change by Western blot analysis relative to control; type: functional
[15] = Downregulation of Cyclin D1 level in human NCI-H520 cells at […] by measuring fold change by Western blot analysis relative to control; type: functional; conditions: dose 7.5 µM
NCI-H1703 [16] = test: Downregulation of c-Myc level in human NCI-H1703 cells at 3 to […] by Western blot analysis; type: functional, cell-based; conditions: dose 3-7.5 µM
NCI-H1703 [17] = test: Downregulation of CDC25A in human NCI-H1703 cells measured after 72 hrs by RT-qPCR method; type: functional, cell-based; conditions: dose 3-7.5 µM
NCI-H1703 [18] = test: Induction of apoptosis in human NCI-H1703 cells assessed as viable cells at 3 uM measured after 72 hrs by PI/Annexin-V staining based flow cytometry analysis (reference value: 92.7% ); type: functional; conditions: read-out: Activity
[19] = Downregulation of CDC25A level in human NCI-H520 cells at 3 uM by measuring fold change by Western blot analysis relative to control; type: functional
[20] = biological target: Histone-lysine N-methyltransferase, H3 lysine-36 specific (Homo sapiens) (UniProt Q96L73); test: Induction of NSD1 degradation in human NCI-H1703 cells at 3 to […] incubated for 72 hrs by Western blot analysis; type: cell-based; conditions: dose 3-7.5 µM
Sequence of Histone-lysine N-methyltransferase, H3 lysine-36 specific (Homo sapiens) (Q96L73 whole entry): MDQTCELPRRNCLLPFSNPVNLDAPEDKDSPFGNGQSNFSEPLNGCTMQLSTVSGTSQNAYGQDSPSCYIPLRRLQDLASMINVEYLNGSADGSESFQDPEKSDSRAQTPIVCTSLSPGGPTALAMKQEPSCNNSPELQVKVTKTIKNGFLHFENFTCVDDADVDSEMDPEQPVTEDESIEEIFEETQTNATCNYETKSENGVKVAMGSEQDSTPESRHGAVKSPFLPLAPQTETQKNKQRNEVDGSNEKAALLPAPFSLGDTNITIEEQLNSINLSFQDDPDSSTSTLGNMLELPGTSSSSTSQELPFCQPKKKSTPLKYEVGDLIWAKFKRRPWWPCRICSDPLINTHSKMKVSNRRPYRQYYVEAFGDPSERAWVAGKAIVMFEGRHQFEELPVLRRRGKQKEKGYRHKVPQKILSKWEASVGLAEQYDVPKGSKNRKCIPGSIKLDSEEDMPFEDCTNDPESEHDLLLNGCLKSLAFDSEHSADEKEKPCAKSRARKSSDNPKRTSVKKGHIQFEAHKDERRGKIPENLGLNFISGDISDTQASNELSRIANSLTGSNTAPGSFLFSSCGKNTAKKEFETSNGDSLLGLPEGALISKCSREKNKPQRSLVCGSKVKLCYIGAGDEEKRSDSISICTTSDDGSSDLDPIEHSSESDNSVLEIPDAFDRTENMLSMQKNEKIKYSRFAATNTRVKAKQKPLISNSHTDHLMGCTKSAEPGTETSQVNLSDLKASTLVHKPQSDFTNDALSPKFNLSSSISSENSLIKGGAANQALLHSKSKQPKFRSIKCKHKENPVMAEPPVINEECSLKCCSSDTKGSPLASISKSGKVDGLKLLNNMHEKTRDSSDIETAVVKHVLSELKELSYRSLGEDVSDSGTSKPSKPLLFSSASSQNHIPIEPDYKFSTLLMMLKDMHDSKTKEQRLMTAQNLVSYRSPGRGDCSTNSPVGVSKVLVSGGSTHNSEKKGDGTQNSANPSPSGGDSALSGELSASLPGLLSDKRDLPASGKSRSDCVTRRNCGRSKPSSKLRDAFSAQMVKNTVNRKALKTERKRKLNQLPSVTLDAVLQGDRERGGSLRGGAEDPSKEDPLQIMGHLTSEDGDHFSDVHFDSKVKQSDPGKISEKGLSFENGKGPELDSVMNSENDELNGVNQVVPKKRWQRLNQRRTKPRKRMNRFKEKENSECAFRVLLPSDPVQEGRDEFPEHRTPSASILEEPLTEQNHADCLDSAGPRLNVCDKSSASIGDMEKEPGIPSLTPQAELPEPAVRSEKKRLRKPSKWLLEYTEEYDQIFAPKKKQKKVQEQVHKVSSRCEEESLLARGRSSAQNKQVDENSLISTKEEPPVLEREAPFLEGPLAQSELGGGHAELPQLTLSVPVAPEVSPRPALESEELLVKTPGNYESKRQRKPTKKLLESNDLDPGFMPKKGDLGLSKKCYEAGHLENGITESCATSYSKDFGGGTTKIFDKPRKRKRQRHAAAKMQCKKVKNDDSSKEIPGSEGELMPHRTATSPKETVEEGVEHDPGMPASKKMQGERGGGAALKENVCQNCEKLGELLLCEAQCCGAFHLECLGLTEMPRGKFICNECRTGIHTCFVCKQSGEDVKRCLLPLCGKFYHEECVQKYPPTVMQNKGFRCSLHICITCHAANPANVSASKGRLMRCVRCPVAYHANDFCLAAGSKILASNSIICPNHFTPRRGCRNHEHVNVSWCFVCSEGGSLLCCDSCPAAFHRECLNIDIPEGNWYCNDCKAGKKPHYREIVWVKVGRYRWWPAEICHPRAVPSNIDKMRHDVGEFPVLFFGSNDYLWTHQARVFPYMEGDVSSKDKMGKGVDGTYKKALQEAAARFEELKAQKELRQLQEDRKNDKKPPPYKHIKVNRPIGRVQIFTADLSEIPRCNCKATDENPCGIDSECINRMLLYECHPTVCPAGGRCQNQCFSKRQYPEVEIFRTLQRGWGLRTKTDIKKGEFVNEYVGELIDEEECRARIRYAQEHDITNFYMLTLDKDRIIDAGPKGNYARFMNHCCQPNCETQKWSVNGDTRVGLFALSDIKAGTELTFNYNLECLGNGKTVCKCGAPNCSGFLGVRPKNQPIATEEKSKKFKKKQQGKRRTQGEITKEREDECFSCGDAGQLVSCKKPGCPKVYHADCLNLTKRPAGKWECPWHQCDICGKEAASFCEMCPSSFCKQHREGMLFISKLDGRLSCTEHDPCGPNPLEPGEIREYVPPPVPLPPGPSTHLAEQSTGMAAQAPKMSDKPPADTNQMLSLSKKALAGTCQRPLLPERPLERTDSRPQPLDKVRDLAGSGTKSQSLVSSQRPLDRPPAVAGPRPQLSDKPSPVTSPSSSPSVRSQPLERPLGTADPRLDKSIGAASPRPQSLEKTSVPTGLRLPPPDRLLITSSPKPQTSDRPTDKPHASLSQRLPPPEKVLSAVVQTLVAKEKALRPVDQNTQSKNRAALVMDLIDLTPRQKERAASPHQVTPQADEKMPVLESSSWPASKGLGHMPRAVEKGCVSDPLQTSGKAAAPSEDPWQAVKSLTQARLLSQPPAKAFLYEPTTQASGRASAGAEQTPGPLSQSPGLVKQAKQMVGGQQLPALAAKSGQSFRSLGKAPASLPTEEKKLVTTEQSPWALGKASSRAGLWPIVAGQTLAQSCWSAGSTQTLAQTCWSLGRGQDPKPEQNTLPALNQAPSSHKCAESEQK

## Cc1cc(CNCCCCCCCCCCC(=O)N[C@H](C(=O)N2C[C@H](O)C[C@H]2C(=O)N[C@@H](C)c2ccc(-c3scnc3C)cc2)C(C)(C)C)cc(C)c1-c1ncn(C)c1-c1ccnc2cc(F)ccc12
[1]
  Activity: Active
[2]
  Activity: inactive
[3]
  fold change (FC): 0.69
NCI-H520 [4]
  Activity: Active
NCI-H1703 [5]
  fold change (FC): 0.67
NCI-H520 [6]
  Activity: Active
[7]
  fold change (FC): 0.84
NCI-H1703 [8]
  Activity: 3%
NCI-H1703 [9]
  Activity: Active
NCI-H1703 [10]
  fold change (FC): 1.1
NCI-H1703 [11]
  Activity: 7.5%
NCI-H1703 [12]
  viability at […]: 66.7%
A549
  Activity: Active
NCI-H1703 [13]
  Activity: 7.21%
NCI-H520 [14]
  fold change (FC): 0.89
[15]
  fold change (FC): 0.62
NCI-H1703 [16]
  Activity: Active
NCI-H1703 [17]
  Activity: Dose-Dependent Effect
NCI-H1703 [18]
  viability at 3 µM: 94.2%
[19]
  fold change (FC): 0.9
[20]
  Activity: inactive
